Read-outs that look alike come from different tables or passages of the source.
Key:
[1] = Rat IV and PO pharmacokinetic studies; details: for CL, iv / clearance: iv dosing at 1 mg/kg; for clearance / AUC(0-t): male, Sprague-Dawley, in vivo; for clearance: iv, 1 mg/kg, CL; for AUC(0-t): po, 5 mg/kg
Protocol: Rat Pharmacokinetic Studies: For the IV and PO pharmacokinetic studies of compounds in rats, the compound was dissolved in PEG-400/ethanol (90/10) as a solution. Rat. Male Sprague-Dawley rats (300-350 g, Hilltop Lab Animals, Inc., Scottdale, Pa.) with cannulas implanted in the jugular vein were used. The rats were fasted overnight in the PO pharmacokinetic studies. Blood samples of 0.3 ml were collected from the jugular vein in EDTA-containing microtainer tubes (Becton Dickinson, Franklin Lakes, N. J.), and centrifuged to separate plasma. In the IV study, the test compound was delivered at 1 mg/kg as a bolus over 0.5 min (n=3). […] Quantitation of Compounds in Plasma. […] The resulting supernates were separated from the precipitated proteins by centrifugation for 10 minutes and transferred to autosampler vials. Samples were either prepared manually, or with the use of the Tomtec automated liquid handler. An aliquot of 5 μL was injected for analysis. The HPLC system consisted of two Shimadzu LC10AD pumps (Columbia, Md.), a Shimadzu SIL-HTC autosampler (Columbia, Md.), and a Hewlett Packard Series 1100 column compartment (Palo Alto, Calif.). The column was a YMC Pro C18 (2.0×50 mm, 3 μm particles, Waters Co., Milford, Mass.), maintained at 60° C. and a flow rate of 0.3 ml/min. The mobile phase consisted of 10 mM ammonium formate and 0.1% formic acid in water (A) and 100% 10 mM ammonium formate and 0.1% formic acid in methanol (B). […] The mobile phase was then returned to initial conditions and the column re-equilibrated for 1 minute. Total analysis time was 4 minutes. The HPLC was interfaced to a Micromass Quattro LC. Ultra high purity nitrogen was used as the nebulizing and desolvation gas at flow rates of 100 L/hr for nebulization and 1100 L/hr for desolvation. The desolvation temperature was 300° C. and the source temperature was 150° C. Data acquisition utilized selected reaction monitoring (SRM). Ions representing the (M+H)^+ species for the compound and the internal standard were selected in MS 1 and collisionally dissociated with argon at a pressure of 2×10^−3 torr to form specific product ions which were subsequently monitored by MS2.
(§1) For accuracy, the determined measure of viral inhibition is an EC50; but the minimum plasma concentrations which should be maintained in a patient is generally believed to be at least four or five fold higher. […] Lower is better. • 4) Estimating potential exposure in man by measuring parameters such as AUC and rate of clearance by oral and iv dosing in rats. High exposure and low clearance was desired.
The rat model is an initial model used to assess potential for exposure in man.

[2] = Metabolic stability in pooled human liver microsomes (HLM); details: pooled human liver microsomes, 3 μM drug; Low/Intermediate/High
Protocol: Metabolic Stability Studies of compounds in Liver Microsomes. The metabolic stability of compounds were investigated in pooled liver microsomes from humans. The human liver microsomes were obtained from BD Gentest (Lot #16, Woburn, Mass.) with a protein concentration of 20 mg/ml and a total cytochrome P450 (CYP) concentration of 0.55 nmol/mg protein. A stock solution of drug was prepared in acetonitrile at 1 mM. […] The incubation media consisted of potassium phosphate buffer (0.1 M, pH 7.4), liver microsomes (final concentration 0.9 mg/ml), magnesium chloride (0.033 mM), and a NADPH-regenerating system. […] The test compound was pre-incubated in the media for 2 min. The reaction was initiated by the addition of the cofactors. The incubation was carried out at 37° C. for 10 min. The reaction was terminated by drawing an aliquot of 100 μL from the incubation and adding into 200 μL of acetonitrile containing a reference compound as an […] analytical standard. Following vortex-mixing and centrifugation, an aliquot of 10 μL of the supernatant was analyzed by LC/MS.
GUIDELINES can be used to categorized test substances as low, intermediate or highly cleared compounds.
as §1
The stability of compounds were also evaluated to determine metabolic stability when incubated in in vitro preparations of human liver microsomes (HLM). This is one commonly used predictive system for evaluating the potential for human metabolism and projecting clearance rates in man. Compounds with low clearance rates were most desireable.

[3] = test system: HIV-1; assay: HIV-1 single-round infectious luciferase reporter virus (pseudotype) assay in HeLa CD4 CCR5 cells; assay type: cell-based
Outline: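 HeLa CD4 CCR5 cells (5×10^4/well, DMEM + 10% FBS) were treated with compound (final <10 μM) and infected with single-round luciferase reporter virus made in 293 cells, at MOI ~0.01. Luciferase was read 72 h post infection. EC50 came from 10-concentration percent-inhibition curves fitted to a four-parameter logistic model.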

[4] = test system: HeLa cells; assay: Cytotoxicity assay in HeLa cells (MTT dye reduction, CC50); details: cytotoxicity; Yes = CC50 above 100 uM, No = not
Outline: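 HeLa cells expressing CD4 and CCR5, grown in DMEM with 10% FBS, were used for cytotoxicity testing by MTT dye reduction; the text gives no further cytotoxicity conditions. The parallel antiviral assay exposed the same cells to compound at final <10 μM for 72 h.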

[5] = AUC 24 h, oral dosing at 5 mg/kg
[6] = Human immunodeficiency virus 1, HeLa-CD4/CCR5, read-out: EC50 Group from TABLE 1, HeLa CD4 CCR5 cells, single-round infectious luciferase reporter virus
[7] = Human immunodeficiency virus 1, HeLa-CD4/CCR5, read-out: EC50 category, HIV-1 single-round reporter virus assay, category 1/2/3 per Table A1 key
[8] = Human immunodeficiency virus 1, HeLa-CD4/CCR5, read-out: EC50 Group from Table 1, Table 4, HeLa CD4 CCR5 cells, single-round luciferase reporter virus
[9] = Human immunodeficiency virus 1, HeLa-CD4/CCR5, read-out: EC50 Group from Table 1, Table 2-1, HeLa CD4 CCR5 cells, single-round luciferase reporter virus

Compound	CL, iv [1]	AUC 24 h ([1]; oral dosing at 5 mg/kg)	clearance [1]	AUC(0-t) [1, 5]	HLM predicted human clearance class [2]	EC50 [3, 6]	EC50 [3, 7]	CC50 > 100 uM [4]	EC50 [3, 8]	EC50 [3, 9]	AUC(0-t) [1]
Cc1ccc(-c2nccc3c(C(=O)C(=O)N4CCN(C(=O)c5ccccc5)C[C@H]4C)c[nH]c23)cc1N [Example 3, 1-benzoyl-3-®-methyl-4-[(7-(3-amino-4-methylphenyl)-6-azaindol-3-yl)-oxoacetyl] piperazine]	1.3 ± 4.0 mL/min/kg	6.3 ± 2.7 µg·h/mL									
COc1ncc(-c2nccc3c(C(=O)C(=O)N4CCN(C(=O)c5ccccc5)C[C@H]4C)c[nH]c23)c(OC)n1 [Example 12, 1-benzoyl-3-®-methyl-4-[(7-(2,4-dimethoxy-pyrimidin-5-yl)-6-azaindol-3-yl)-oxoacetyl]piperazine]	11.9 ± 1.8 mL/min/kg	4.7 ± 1.1 µg·h/mL									
COc1cnc(-c2cnccn2)c2[nH]cc(C(=O)C(=O)N3CCN(C(=O)c4ccccn4)CC3)c12 [Example 102, 1-picolinoyl-4-[(4-methoxy-7-(pyrazin-2-yl)-6-azaindol-3-yl)-oxoacetyl]piperazine]			12 ± 5.5 mL/min/kg	6900 ± 1300 ng·h/mL	Low (0-0.100)	< 1000 nM	0.2 to 1000 nM	Yes			
O=C(C(=O)N1CCN(C(=O)c2ccccc2)CC1)c1c[nH]c2c(-c3cnco3)ncc(F)c12 [Example 145]	1.4 ± 0.29 mL/min/kg			12000 ± 3800 ng·h/mL		< 1000 nM	< 0.2 nM				
COc1cnc(-n2cncn2)c2[nH]cc(C(=O)C(=O)N3CCN(C(=O)c4ccccc4)CC3)c12 [Example 187, 1-benzoyl-4-[(4-methoxy-7-(1,2,4-triazol-1-yl)-6-azaindol-3-yl)-oxoacetyl]piperazine]			2.4 ± 0.5 mL/min/kg	22400 ± 7200 ng·h/mL	Low (0-0.100)	< 1000 nM	< 0.2 nM	Yes			
COc1cnc(-n2ccnn2)c2[nH]cc(C(=O)C(=O)N3CCN(C(=O)c4ccccc4)CC3)c12 [Example 188, 1-benzoyl-4-[(4-methoxy-7-(1,2,3-triazol-1-yl)-6-azaindol-3-yl)-oxoacetyl]piperazine]			2.4 ± 0.08 mL/min/kg	20000 ± 4600 ng·h/mL	Low (0-0.100)	< 1000 nM	< 0.2 nM	Yes			
COc1cnc(-n2ccc(C)n2)c2[nH]cc(C(=O)C(=O)N3CCN(C(=O)c4ccccc4)CC3)c12 [Example 190, 1-benzoyl-4-[(4-methoxy-7-(3-methyl-pyrazol-1-yl)-6-azaindol-3-yl)-oxoacetyl]piperazine]			3.7 ± 1 mL/min/kg	7400 ± 3400 ng·h/mL	Low (0-0.100)	< 1000 nM	< 0.2 nM	Yes			
COc1cnc(-n2ccnc2)c2[nH]cc(C(=O)C(=O)N3CCN(C(=O)c4ccccc4)CC3)c12 [Example 193, 1-benzoyl-4-[(4-methoxy-7-(1-imidazolyl)-6-azaindol-3-yl)-oxoacetyl]piperazine]			4.5 ± 0.4 mL/min/kg	14000 ± 8000 ng·h/mL	Low (0-0.100)	< 1000 nM	< 0.2 nM	No			
O=C(C(=O)N1CCN(C(=O)c2ccccc2)CC1)c1c[nH]c2c(-c3ncco3)ccnc12 [Example 204]			10 ± 1.3 mL/min/kg	12000 ± 1400 ng·h/mL	Low (0-0.100)		0.2 to 1000 nM	Yes	< 1000 nM		
O=C(C(=O)N1CCN(C(=O)c2ccccc2)CC1)c1c[nH]c2c(-n3nccn3)ccnc12 [Example 205, 1-(4-benzoyl-piperazin-1-yl)-2-(7-[1,2,3]triazol-2-yl-1H-pyrrolo[3,2-b]pyridin-3-yl)-ethane-1,2-dione]			5.4 ± 0.4 mL/min/kg	9600 ± 1200 ng·h/mL	Low (0-0.100)		0.2 to 1000 nM	Yes	< 1000 nM		
O=C(C(=O)N1CCN(C(=O)c2ccccc2)CC1)c1c[nH]c2c(-n3ccnn3)ncc(F)c12 [Example 216]				32000 ± 12000 ng·h/mL	Low (0-0.100)	< 1000 nM	< 0.2 nM				
COc1cnc(-c2ncon2)c2[nH]cc(C(=O)C(=O)N3CCN(C(=O)c4ccccc4)CC3)c12 [Example 226]			24.5 ± 3 mL/min/kg	500 ± 130 ng·h/mL	Low (0-0.100)	< 1000 nM	< 0.2 nM	Yes			
COc1cnc(-n2ccc(CO)n2)c2[nH]cc(C(=O)C(=O)N3CCN(C(=O)c4ccccc4)[C@H](C)C3)c12 [Example 236, (R)-1-benzoyl-2-methyl-4-[(4-methoxy-7-(3-hydroxylmethyl-pyrazol-1-yl)-6-azaindol-3-yl)-oxoacetyl]piperazine]			29 ± 6.7 mL/min/kg	560 ± 250 ng·h/mL	Low (0-0.100)		< 0.2 nM	Yes		< 1000 nM	
COc1cnc(-n2cncn2)c2[nH]cc(C(=O)C(=O)N3CCN(C(=O)c4ccccc4)[C@H](C)C3)c12 [Example 245, (R)-1-benzoyl-2-methyl-4-[(4-methoxy-7-(1,2,4-triazol-1-yl)-6-azaindol-3-yl)-oxoacetyl]piperazine]			5.6 ± 1.8 mL/min/kg	12100 ± 1300 ng·h/mL	Low (0-0.100)		< 0.2 nM	Yes		< 1000 nM	
COc1cnc(-c2cnc(N)cn2)c2[nH]cc(C(=O)C(=O)N3CCN(C(=O)c4ccccc4)[C@H](C)C3)c12 [Example 266]			37.4 ± 3.2 mL/min/kg	160 ± 40 ng·h/mL	Low (0-0.100)		< 0.2 nM	Yes		< 1000 nM	
Cc1ncn(-c2ncc(F)c3c(C(=O)C(=O)N4CCN(C(=O)c5ccccc5)CC4)c[nH]c23)n1 [Example 306]			0.39 ± 0.07 mL/min/kg	160000 ± 11000 ng·h/mL	Low (0-0.100)	< 1000 nM	< 0.2 nM				
COc1cnc(-n2cnc(C)n2)c2[nH]cc(C(=O)C(=O)N3CCN(C(=O)c4ccccc4)CC3)c12 [Example 316]						< 1000 nM	< 0.2 nM				52000 ± 12000 ng·h/mL
